Source: patent publication US20060189693A1, “Methods of treatment with lxr agonists” (priority 2003, published 2006)

What was measured:
LXRβ protein = target: T1, LXRβ protein (Homo sapiens, UniProt P55055); settings: 1 μM; over a background reading of 10000 fluorescence units; cited from earlier work
T1 sequence (P55055 1-460): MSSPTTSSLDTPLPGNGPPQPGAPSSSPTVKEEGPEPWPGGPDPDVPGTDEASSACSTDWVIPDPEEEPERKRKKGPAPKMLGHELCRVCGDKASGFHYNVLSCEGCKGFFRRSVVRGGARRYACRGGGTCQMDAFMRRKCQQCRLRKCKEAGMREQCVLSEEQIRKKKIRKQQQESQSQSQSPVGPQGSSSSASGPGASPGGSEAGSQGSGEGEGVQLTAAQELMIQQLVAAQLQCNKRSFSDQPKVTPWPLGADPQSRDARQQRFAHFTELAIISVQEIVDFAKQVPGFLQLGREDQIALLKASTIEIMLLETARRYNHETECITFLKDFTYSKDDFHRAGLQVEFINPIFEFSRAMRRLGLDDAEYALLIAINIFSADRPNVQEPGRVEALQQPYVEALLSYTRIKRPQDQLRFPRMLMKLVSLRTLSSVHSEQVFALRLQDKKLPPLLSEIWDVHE

[1] = tested on: LV mass (cardiac hypertrophy) of aorta-constricted CD-1 mice; assay: Effect on LV mass in aorta-constricted mice (Example 3); format: in vivo
Protocol: Male CD-1 mice (n=7 per group), 20-25 g in weight, were used for the experiment. Each mouse was anaesthetized with isoflurane 1-2%. Each mouse's aorta was exposed between the two renal arteries and was surgically constricted using a 30-gauge needle and 6.0 suture to induce heart growth. Seven days after surgery, baseline echocardiography was performed on each mouse to establish left ventricular mass (“LV mass”). Enalapril, the gold standard in treating cardiac hypertrophy, was orally administered to the mice at the dose of 10 mg/kg beginning on day 11 (4 days after baseline) and was continued once daily for 10 days. The compound of Formula IIa was suspended in 0.5% methylcellulose (MC) solution (vehicle) and was orally administered to the mice at the doses of 10 mg/kg twice a day, beginning on day 11. The control group was administered with vehicle (0.5% MC) beginning on day 11. Repeat echocardiography was conducted on each mouse 14 and 21 days after surgery.

[2] = tested on: LV mass (cardiac hypertrophy) of aorta-constricted CD-1 mice; assay: Effect on LV mass in aorta-constricted mice, dose range (Example 4); format: in vivo; parameters: unit not given here
Protocol: Male CD-1 mice (n=7 per group), 20-25 g in weight, were used for the experiment. Each mouse was anaesthetized with isoflurane 1-2%. Each mouse's aorta was exposed between the two renal arteries and was surgically constricted using a 30-gauge needle and 6.0 suture to induce heart growth. Seven days after surgery, baseline echocardiography was performed on each mouse to establish left ventricular mass (“LV mass”). Enalapril was orally administered to the mice at the dose of 10 mg/kg beginning on day 11 (4 days after baseline) and was continued once daily for 10 days. Formula IIa, suspended in 0.5% MC (vehicle), was orally administered to the mice at the doses of 3.0 mg/kg, 10 mg/kg, or 30 mg/kg once a day beginning on day 11. Formula Ia, suspended in 0.5% MC (vehicle), was orally administered to the mice at the dose of 50 mg/kg once a day beginning on day 11. The control group was administered with vehicle (0.5% MC). Repeat echocardiography was conducted on each mouse 14 and 21 days after surgery.

For `C[C@H](CC[C@@H]1OC1(C)C)[C@H]1CC[C@H]2[C@@H]3CC=C4C[C@@H](O)CC[C@]4(C)[C@H]3CC[C@]12C` [24(S), 25-epoxycholesterol], the “reading (fluorescence)” value (LXRβ protein) is listed as 20000 fluorescence units.
With `CCOC(=O)[C@H](CCc1ccccc1)N[C@@H](C)C(=O)N1CCC[C@H]1C(=O)O` [Enalapril, reference compound] the “Mean ± SE LV Mass” value ([1]; 10 mg/kg once daily oral from day 11, 14 days after surgery) was 84.90 ± 1.11, the “LV Mass compared to vehicle” value ([1]; 10 mg/kg once daily oral, days 14 and 21, p<0.05) was “significantly (p<0.05) reduced LV Mass” and the “LV Mass compared to baseline hypertrophy (reversal of pathology)” value ([1]; 10 mg/kg once daily oral, p<0.05) was “significantly (p<0.05) reversed the pathology”. For the same compound, the “Mean ± SE LV Mass” value ([1]; Enalapril group 10 mg/kg once daily oral, 7 days after surgery (baseline, before dosing from day 11)) was 94.09 ± 1.950, the “Mean ± SE LV Mass” value ([2]; Enalapril 10 mg/kg once daily oral from day 11, 14 days after surgery) was 95.1 ± 3.90 and the “Mean ± SE LV Mass” value ([2]; Enalapril 10 mg/kg once daily oral from day 11, 21 days after surgery) was 91.4 ± 2.48. For the same compound, the “Mean ± SE LV Mass” value ([2]; Enalapril group 10 mg/kg once daily oral, 7 days after surgery (baseline, before dosing)) was 101.02 ± 2.79.
For `O=C(O)Cc1cccc(OCCCN(Cc2cccc(C(F)(F)F)c2Cl)CC(c2ccccc2)c2ccccc2)c1` [Formula IIa, 2-(3-{3-[[2-Chloro-3-(Trifluoromethyl)Benzyl](2,2-Diphenylethyl)Amino]Propoxy}-Phenyl)Acetic Acid], the “Mean ± SE LV Mass” value ([1]; 10 mg/kg BID oral from day 11, 14 days after surgery) was 99.45 ± 1.98, the “Mean ± SE LV Mass” value ([1]; 10 mg/kg BID oral from day 11, 21 days after surgery) was 100.66 ± 2.43 and the “further increase in LV Mass” value ([1]; 10 mg/kg b.i.d. oral) was “prevented any further increase in LV Mass”. The “LV Mass compared to vehicle” value ([1]; 10 mg/kg b.i.d. oral, 14 and 21 days after surgery, p<0.05) was “statistically significant reduction”, the “Mean ± SE LV Mass” value ([1]; Formula IIa group 10 mg/kg BID oral, 7 days after surgery (baseline, before dosing from day 11)) was 100.88 ± 2.77 and the “Mean ± SE LV Mass” value ([2]; 3 mg/kg once a day oral from day 11, 14 days after surgery) was 106.75 ± 2.43. The “Mean ± SE LV Mass” value ([2]; 3 mg/kg once a day oral from day 11, 21 days after surgery) was 106.54 ± 2.56, the “Mean ± SE LV Mass” value ([2]; 3 mg/kg once a day oral group, 7 days after surgery (baseline, before dosing)) was 98.9 ± 4.59 and the “Mean ± SE LV Mass” value ([2]; 10 mg/kg once a day oral from day 11, 14 days after surgery) was 96.31 ± 2.70. The “Mean ± SE LV Mass” value ([2]; 10 mg/kg once a day oral from day 11, 21 days after surgery) was 95.5 ± 2.97, the “Mean ± SE LV Mass” value ([2]; 10 mg/kg once a day oral group, 7 days after surgery (baseline, before dosing)) was 98.01 ± 2.39 and the “Mean ± SE LV Mass” value ([2]; 30 mg/kg once a day oral from day 11, 14 days after surgery) was 101.77 ± 2.25. For the same compound, the “Mean ± SE LV Mass” value ([2]; 30 mg/kg once a day oral from day 11, 21 days after surgery) was 101.99 ± 4.00 and the “Mean ± SE LV Mass” value ([2]; 30 mg/kg once a day oral group, 7 days after surgery (baseline, before dosing)) was 102.42 ± 2.27.
With `O=S(=O)(c1ccccc1)N(CC(F)(F)F)c1ccc(C(O)(C(F)(F)F)C(F)(F)F)cc1` [Formula Ia, N-(2,2,2-Trifluoroethyl)-N-[4-(2,2,2-Trifluoro-1-Hydroxy-1-Trifluoromethyl-Ethyl)-Phenyl]-Benzenesulfonamide] the “Mean ± SE LV Mass” value ([2]; 50 mg/kg once a day oral from day 11, 14 days after surgery) was 106.56 ± 3.86 and the “Mean ± SE LV Mass” value ([2]; 50 mg/kg once a day oral group, 7 days after surgery (baseline, before dosing)) was 101.85 ± 4.75.
